# Key:
# morningglory [1] = assay: Test A pre-/postemergence greenhouse test; assay type: in vivo, Ipomoea spp.; conditions: for Morningglory plant response rating: 0 to 100 scale
# How it was run: (§1)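 Two application timings were run side by side in the greenhouse. Before emergence, compound went onto the soil surface of loam–sand pots as a directed spray; after emergence, plants at 2–10 cm and the one- to two-leaf stage were treated. Visual injury versus controls was rated at approximately day ten.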
# redroot pigweed = assay: Test A pre-/postemergence greenhouse test; assay type: in vivo, Amaranthus retroflexus; conditions: for Pigweed plant response rating: 0 to 100 scale
# How it was run: as §1
# corn [2] = assay: Test A pre-/postemergence greenhouse test; assay type: in vivo, Zea mays; conditions: for Corn plant response rating: 0 to 100 scale
# How it was run: as §1
# Italian ryegrass = assay: Test C pre-/postemergence test; assay type: in vivo, Lolium multiflorum; conditions: for Plant response rating, Ryegrass, Italian: scale 0 to 100, 0 no effect, 100 complete control
# How it was run: (§2)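 Compounds in a non-phytotoxic solvent with surfactant applied preemergence to seeded pots and, at the same time, postemergence to plants 2–18 cm tall (1- to 4-leaf stage). Paddy tests: pots flooded to 3 cm, compound applied into the water, depth held throughout.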
# wheat = assay: Test C pre-/postemergence test; assay type: in vivo, Triticum aestivum; conditions: for Wheat plant response rating: preemergence, scale 0 (no effect) to 100 (complete control); for Plant response rating, Wheat: scale 0 to 100, 0 no effect, 100 complete control
# How it was run: as §2
# wild oat = assay: Test C pre-/postemergence test; assay type: in vivo, Avena fatua; conditions: for Plant response rating, Oat, Wild: scale 0 to 100, 0 no effect, 100 complete control
# How it was run: as §2
# bermudagrass = assay: Test C pre-/postemergence test; assay type: in vivo, Cynodon dactylon; conditions: for Plant response rating, Bermudagrass: Postemergence, scale 0 to 100, 0 no effect, 100 complete control
# How it was run: as §2
# cocklebur = assay: Test C pre-/postemergence test; assay type: in vivo, Xanthium strumarium; conditions: for Plant response rating, Cocklebur: scale 0 to 100, 0 no effect, 100 complete control
# How it was run: as §2
# corn [3] = assay: Test C pre-/postemergence test; assay type: in vivo, Zea mays; conditions: for Plant response rating, Corn: scale 0 to 100, 0 no effect, 100 complete control
# How it was run: as §2
# giant foxtail = assay: Test C pre-/postemergence test; assay type: in vivo, Setaria faberii; conditions: for Plant response rating, Foxtail, Giant: scale 0 to 100, 0 no effect, 100 complete control
# How it was run: as §2
# johnsongrass = assay: Test C pre-/postemergence test; assay type: in vivo, Sorghum halepense; conditions: for Plant response rating, Johnsongrass: scale 0 to 100, 0 no effect, 100 complete control
# How it was run: as §2
# kochia = assay: Test C pre-/postemergence test; assay type: in vivo, Kochia scoparia; conditions: for Plant response rating, Kochia: scale 0 to 100, 0 no effect, 100 complete control
# How it was run: as §2
# morningglory [4] = assay: Test C pre-/postemergence test; assay type: in vivo, Ipomoea coccinea; conditions: for Plant response rating, Morningglory: scale 0 to 100, 0 no effect, 100 complete control
# How it was run: as §2
# eastern black nightshade = assay: Test C pre-/postemergence test; assay type: in vivo, Solanum ptycanthum
# How it was run: as §2
# yellow nutsedge = assay: Test C pre-/postemergence test; assay type: in vivo, Cyperus esculentus; conditions: for Plant response rating, Nutsedge, Yellow: scale 0 to 100, 0 no effect, 100 complete control
# How it was run: as §2
# [5] = test system: common (oilseed) sunflower; assay: Test C pre-/postemergence test; assay type: in vivo, Helianthus annuus; conditions: for Sunflower plant response rating: preemergence, scale 0 (no effect) to 100 (complete control)
# How it was run: as §2
# rice = assay: Test C flooded paddy test; assay type: in vivo, Oryza sativa; conditions: Flood
# How it was run: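 Ratings were visual and made relative to untreated controls after 13 to 15 greenhouse days.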
# [6] = Postemergence, 125 g ai/ha, 0 is no effect, 100 is complete control
# [7] = Postemergence, 500 g ai/ha, 0 is no effect, 100 is complete control
# [8] = Preemergence, 125 g ai/ha, 0 no effect, 100 complete control
# [9] = Preemergence, 500 g ai/ha, 0 to 100 scale where 0 is no effect and 100 is complete control
# [10] = 31 g ai/ha, Preemergence, scale 0 to 100
# [11] = 62 g ai/ha, preemergence, scale 0 (no effect) to 100 (complete control)
# [12] = preemergence, 125 g ai/ha, scale 0 (no effect) to 100 (complete control)
structure (smiles),measurement,setting,value
Cc1cc[n+]([O-])c([S+]([O-])Cc2c(C(F)(F)F)nn(C)c2OC(F)F)c1 (stereo not drawn) [Compound 1],Morningglory plant response rating,morningglory [1]; [6],70
same,Morningglory plant response rating,morningglory [1]; [7],90
same,Morningglory plant response rating,morningglory [1]; [8],70
same,"Plant response rating, Morningglory",morningglory [1]; [9],80
same,Pigweed plant response rating,redroot pigweed; [6],100
same,Pigweed plant response rating,redroot pigweed; [7],100
same,Pigweed plant response rating,redroot pigweed; [8],100
same,"Plant response rating, Pigweed",redroot pigweed; [9],100
same,Corn plant response rating,corn [2]; [6],50
same,Corn plant response rating,corn [2]; [7],80
same,Corn plant response rating,corn [2]; [8],0
same,"Plant response rating, Corn",corn [2]; [9],70
same,"Ryegrass, Italian plant response rating",Italian ryegrass; [10],60
same,"Ryegrass, Italian plant response rating",Italian ryegrass; [11],100
same,"Plant response rating (0 to 100), Ryegrass, Italian","Italian ryegrass; Postemergence, 31 g ai/ha",0
same,"Plant response rating (0 to 100), Ryegrass, Italian","Italian ryegrass; Postemergence, 62 g ai/ha",0
same,"Plant response rating, Ryegrass, Italian","Italian ryegrass; Postemergence, 125 g ai/ha",0
same,"Plant response rating, Ryegrass, Italian","Italian ryegrass; Postemergence, 250 g ai/ha",30
same,"Plant response rating (0 to 100), Ryegrass, Italian","Italian ryegrass; Preemergence, 250 g ai/ha",100
same,"Ryegrass, Italian plant response rating",Italian ryegrass; [12],100
same,Wheat plant response rating,wheat; 62 g ai/ha,30
same,"Plant response rating (0 to 100), Wheat","wheat; Postemergence, 31 g ai/ha",0
same,"Plant response rating (0 to 100), Wheat","wheat; Postemergence, 62 g ai/ha",0
same,"Plant response rating, Wheat","wheat; Postemergence, 125 g ai/ha",0
same,"Plant response rating, Wheat","wheat; Postemergence, 250 g ai/ha",0
same,"Plant response rating (0 to 100), Wheat","wheat; Preemergence, 250 g ai/ha",95
same,Wheat plant response rating,wheat; 125 g ai/ha,60
same,"Oat, Wild plant response rating",wild oat; [10],50
same,"Oat, Wild plant response rating",wild oat; [11],85
same,"Plant response rating (0 to 100), Oat, Wild","wild oat; Postemergence, 31 g ai/ha",0
same,"Plant response rating, Oat, Wild","wild oat; Postemergence, 62 g ai/ha",0
same,"Plant response rating, Oat, Wild","wild oat; Postemergence, 125 g ai/ha",0
same,"Plant response rating, Oat, Wild","wild oat; Postemergence, 250 g ai/ha",0
same,"Plant response rating (0 to 100), Oat, Wild","wild oat; Preemergence, 250 g ai/ha",100
same,"Oat, Wild plant response rating",wild oat; [12],95
same,Bermudagrass plant response rating,bermudagrass; [10],85
same,Bermudagrass plant response rating,bermudagrass; [11],90
same,"Plant response rating, Bermudagrass",bermudagrass; 125 g ai/ha,70
same,"Plant response rating, Bermudagrass",bermudagrass; 250 g ai/ha,80
same,"Plant response rating (0 to 100), Bermudagrass","bermudagrass; Preemergence, 250 g ai/ha",100
same,Bermudagrass plant response rating,bermudagrass; [12],100
same,Cocklebur plant response rating,cocklebur; [10],0
same,Cocklebur plant response rating,cocklebur; [11],0
same,"Plant response rating (0 to 100), Cocklebur","cocklebur; Postemergence, 31 g ai/ha",0
same,"Plant response rating, Cocklebur","cocklebur; Postemergence, 62 g ai/ha",0
same,"Plant response rating, Cocklebur","cocklebur; Postemergence, 125 g ai/ha",0
same,"Plant response rating, Cocklebur","cocklebur; Postemergence, 250 g ai/ha",0
same,"Plant response rating (0 to 100), Cocklebur","cocklebur; Preemergence, 250 g ai/ha",60
same,Cocklebur plant response rating,cocklebur; [12],0
same,Corn plant response rating,corn [3]; [10],50
same,Corn plant response rating,corn [3]; [11],60
same,"Plant response rating (0 to 100), Corn","corn [3]; Postemergence, 31 g ai/ha",0
same,"Plant response rating, Corn","corn [3]; Postemergence, 62 g ai/ha",0
same,"Plant response rating, Corn","corn [3]; Postemergence, 125 g ai/ha",0
same,"Plant response rating, Corn","corn [3]; Postemergence, 250 g ai/ha",5
same,"Plant response rating (0 to 100), Corn","corn [3]; Preemergence, 250 g ai/ha",98
same,Corn plant response rating,corn [3]; [12],95
same,"Foxtail, Giant plant response rating",giant foxtail; [10],60
same,"Foxtail, Giant plant response rating",giant foxtail; [11],70
same,"Plant response rating (0 to 100), Foxtail, Giant","giant foxtail; Postemergence, 31 g ai/ha",0
same,"Plant response rating, Foxtail, Giant","giant foxtail; Postemergence, 62 g ai/ha",0
same,"Plant response rating, Foxtail, Giant","giant foxtail; Postemergence, 125 g ai/ha",45
same,"Plant response rating, Foxtail, Giant","giant foxtail; Postemergence, 250 g ai/ha",60
same,"Plant response rating (0 to 100), Foxtail, Giant","giant foxtail; Preemergence, 250 g ai/ha",100
same,"Foxtail, Giant plant response rating",giant foxtail; [12],100
same,Johnsongrass plant response rating,johnsongrass; [10],80
same,Johnsongrass plant response rating,johnsongrass; [11],90
same,"Plant response rating (0 to 100), Johnsongrass","johnsongrass; Postemergence, 31 g ai/ha",0
same,"Plant response rating, Johnsongrass","johnsongrass; Postemergence, 62 g ai/ha",0
same,"Plant response rating, Johnsongrass","johnsongrass; Postemergence, 125 g ai/ha",0
same,"Plant response rating, Johnsongrass","johnsongrass; Postemergence, 250 g ai/ha",10
same,"Plant response rating (0 to 100), Johnsongrass","johnsongrass; Preemergence, 250 g ai/ha",100
same,Johnsongrass plant response rating,johnsongrass; [12],100
same,Kochia plant response rating,kochia; [10],100
same,Kochia plant response rating,kochia; [11],100
same,"Plant response rating (0 to 100), Kochia","kochia; Postemergence, 31 g ai/ha",0
same,"Plant response rating, Kochia","kochia; Postemergence, 62 g ai/ha",0
same,"Plant response rating, Kochia","kochia; Postemergence, 125 g ai/ha",10
same,"Plant response rating, Kochia","kochia; Postemergence, 250 g ai/ha",40
same,"Plant response rating (0 to 100), Kochia","kochia; Preemergence, 250 g ai/ha",100
same,Kochia plant response rating,kochia; [12],100
same,Morningglory plant response rating,morningglory [4]; [10],85
same,Morningglory plant response rating,morningglory [4]; [11],100
same,"Plant response rating (0 to 100), Morningglory","morningglory [4]; Postemergence, 31 g ai/ha",40
same,"Plant response rating, Morningglory","morningglory [4]; Postemergence, 62 g ai/ha",40
same,"Plant response rating, Morningglory","morningglory [4]; Postemergence, 125 g ai/ha",45
same,"Plant response rating, Morningglory","morningglory [4]; Postemergence, 250 g ai/ha",75
same,"Plant response rating (0 to 100), Morningglory","morningglory [4]; Preemergence, 250 g ai/ha",100
same,Morningglory plant response rating,morningglory [4]; [12],100
same,Nightshade plant response rating,eastern black nightshade; [10],70
same,Nightshade plant response rating,eastern black nightshade; [11],100
same,"Plant response rating (0 to 100), Nightshade","eastern black nightshade; Preemergence, 250 g ai/ha",100
same,Nightshade plant response rating,eastern black nightshade; [12],100
same,"Nutsedge, Yellow plant response rating",yellow nutsedge; [10],0
same,"Nutsedge, Yellow plant response rating",yellow nutsedge; [11],95
same,"Plant response rating (0 to 100), Nutsedge, Yellow","yellow nutsedge; Postemergence, 31 g ai/ha",0
same,"Plant response rating, Nutsedge, Yellow","yellow nutsedge; Postemergence, 62 g ai/ha",0
same,"Plant response rating, Nutsedge, Yellow","yellow nutsedge; Postemergence, 125 g ai/ha",0
same,"Plant response rating, Nutsedge, Yellow","yellow nutsedge; Postemergence, 250 g ai/ha",0
same,"Plant response rating (0 to 100), Nutsedge, Yellow","yellow nutsedge; Preemergence, 250 g ai/ha",100
same,"Nutsedge, Yellow plant response rating",yellow nutsedge; [12],100
same,Sunflower plant response rating,[5]; 62 g ai/ha,5
same,"Plant response rating (0 to 100), Sunflower","[5]; Preemergence, 250 g ai/ha",75
same,Sunflower plant response rating,[5]; 125 g ai/ha,25
same,"Plant response rating, Rice","rice; 31 g ai/ha, scale 0 to 100 (0 no effect, 100 complete control)",0
same,"Plant response rating, Rice","rice; 62 g ai/ha, scale 0 to 100, 0 no effect, 100 complete control, 13 to 15 days",0
same,"Plant response rating, Rice","rice; 125 g ai/ha, scale 0 to 100, 0 no effect, 100 complete control, 13 to 15 days",80
same,"Plant response rating, Rice","rice; 250 g ai/ha, scale 0 to 100 (0 no effect, 100 complete control)",80
